In the METLIN SMRT retention time set (Domingo-Almenara et al. 2019):

Assay: gradient 5% acetonitrile 3 min, to 50% in 2 min, to 85% in 15 min, held 3 min, 100 µL/min
Conditions: column: Zorbax Extend-C18 2.1 x 50 mm; eluents: water / acetonitrile, 0.1% formic acid
Outline: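 Mixtures of ~100 pure standards were chromatographed on a Zorbax Extend-C18 column (2.1 × 50 mm, 1.8 μm) at 100 μL/min using water and acetonitrile, each with 0.1% formic acid. Detection used a quadrupole time-of-flight mass spectrometer in positive and negative ionization mode, and data collection spanned 3 months. Retention time was obtained from adduct peaks picked computationally and each checked manually.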

| SMILES | RP-LC retention time |
| --- | --- |
| Cn1nnc2c(N3CCN(C(=O)Nc4ccccc4C#N)CC3)ncnc21 | 626 s |
| Cc1cccc(NC(=O)Cn2c(N3CCOCC3)nc(C)cc2=O)c1 | 672 s |
| O=C(Cc1cn2cc(F)ccc2n1)Nc1ccc(Cl)cc1Cl | 666 s |
| Cn1nc(C(F)(F)F)cc1C(=O)N1CCCC1c1ccccc1Cl (stereo not drawn) | 1030 s |
| Cc1ccccc1CNC(=O)C1(C)CCCN(C(=O)Nc2cccc(Cl)c2)C1 (stereo not drawn) | 1030 s |
| Cc1cc(Cl)ccc1OCc1nc(-c2ccc3c(c2)ncn3CCC(=O)N2CCCCC2)no1 | 956 s |
| CN(C)c1ccc(CNC(=O)CCC(=O)N2CCCn3nc(-c4cccn4C)cc32)cc1 | 599 s |
| Cc1ccc2nc(SCC(=O)N3CCCCC3)[nH]c2c1 | 590 s |
| CN(CC1CCOC1)C(=O)Nc1cccc(Cl)c1F (stereo not drawn) | 733 s |
| COc1cccc(N2CCN(c3ccnc(SCC(=O)Nc4cc(OC)ccc4OC)n3)CC2)c1 | 818 s |
| O=C(NCC1CCOCC1)Nc1c(F)cccc1F | 628 s |
| Cc1nc2c(NC(=O)c3ccc(Cl)cc3)cccn2n1 | 835 s |
| COc1ccc(NC(=O)Nc2c(-c3ccncc3)[nH]c3ccc(F)cc23)c(OC)c1 | 683 s |
| CCOC(=O)c1cc2n(n1)CC(C)(C(=O)NCc1ccccc1)N(Cc1ccccc1)C2=O (stereo not drawn) | 880 s |
| COc1cc(-c2nc3ccc(C)cn3c2Nc2ccc3c(c2)OCCO3)ccc1O | 636 s |
| COc1ccc(-n2c(=O)c(C(=O)Nc3ccc(OC)c(F)c3)c(O)c3cccnc32)cc1 | 1200 s |
| Cc1cc(N2CCN(C)CC2)nc2ccc(NC(=O)C3CCC(C(C)(C)C)CC3)cc12 (stereo not drawn) | 675 s |
| COc1ccc(S(=O)(=O)N2CCCC(C(=O)Nc3ccc4c(c3)OCCO4)C2)cc1Cl (stereo not drawn) | 938 s |
| CCOC(=O)CNC(=O)N1CCCN(c2nc3cc(Br)ccc3n3cccc23)CC1 | 671 s |
| Cn1cc(CN2CCCC(COc3ccccc3C(=O)N3CCCCC3)C2)c2ccccc21 (stereo not drawn) | 753 s |
| CCNc1cc(N2CCC(CCC(=O)Nc3ccc(OC)c(OC)c3)CC2)ncn1 | 614 s |
| O=C(c1ccc(Cl)cc1)N1CCN(c2nc(CN3CCOCC3)cs2)CC1 | 638 s |

| SMILES | RP-LC retention time |
| --- | --- |
| CCCC(=O)Nc1cc2c(cc1S(=O)(=O)c1ccc(F)cc1)n(C)c(=O)n2C | 767 s |
| Cn1nc(-c2nnc(-c3ccccc3Cl)o2)c2c1CCN(C(=O)Nc1ccccc1)C2 | 849 s |
| COC(=O)c1ccc(C(=O)OC)c(NC(=O)CSc2nc(C)cc(C)n2)c1 | 852 s |
| O=C(c1cccc2c1CCN2C(=O)c1ccc(F)cc1)N1CCOCC1 | 704 s |
| CCN1C(=O)Cc2c(C)nc(-c3ccc(OC)cc3)nc21 | 880 s |
| Cc1cc(=O)n(CC(=O)Nc2ccc(Br)cc2)c(N2CCCC2)n1 | 666 s |
| Cc1ccc(Cn2c(=O)n(CCNC(=O)c3ccoc3)c3ncccc32)cc1 | 760 s |
| Cc1nc(CC(=O)Nc2ccc(F)cc2F)cs1 | 739 s |
| O=C(CSc1ccc(N2CCCC(C(=O)NC3CC3)C2)nn1)NCc1cc(F)cc(F)c1 (stereo not drawn) | 642 s |
| COCC1CN(S(=O)(=O)c2cccc(C#N)c2)CCC1(F)F (stereo not drawn) | 892 s |
| COc1ccc(C)cc1NC(=O)C1CCc2nc(N3CCOCC3)ncc2C1 (stereo not drawn) | 832 s |
| CS(=O)(=O)Nc1ccc(-c2noc(-c3cnccn3)n2)cc1 | 686 s |
| CCOC(=O)Cc1csc(NS(=O)(=O)c2cn(C)nc2C)n1 | 592 s |
| Cc1cc(NC(=O)C2CCN(C(=O)Cc3c(C)noc3C)CC2)no1 | 621 s |
| CC(Cc1ccco1)NC(=O)c1ccc2c(c1)nc1n2CCCCC1 (stereo not drawn) | 620 s |
| CCCn1ccc2oc(C)c(C(=O)N3CCN(c4ccc(OC)cc4)CC3)c2c1=O | 707 s |
| O=C(NCCC1=CCCCC1)C(=O)NCC1(c2cccs2)CCCC1 | 1240 s |
| CCc1cccc(C)c1Nc1c(-c2ccc(F)cc2)nc2ncccn12 | 886 s |
| CCOc1ccc(CCNC(=O)c2cc(S(=O)(=O)N3CCCC3)c(C)n2C)cc1OCC | 951 s |
| CC(=O)c1ccc(Nc2c(C(=O)N3CCCC3)cnc3nc(C)ccc23)cc1 | 584 s |
| CC(C)Cn1c(=O)c2ccccc2n(Cc2nc(-c3ccc(Br)cc3)no2)c1=O | 1300 s |

Now from value to molecule:

| RP-LC retention time | SMILES |
| --- | --- |
| 978 s | CCCn1cc(CCNS(=O)(=O)c2cc(C)c(C)cc2C)c2cccnc21 |
| 688 s | O=C(c1cc(-c2ccccn2)n[nH]1)N1CCCC(C(=O)N2CCc3ccccc3C2)C1 (stereo not drawn) |
| 634 s | COCCN1C(=O)c2ccccc2C(C(=O)NCCN2CCCCC2C)C1c1cccs1 (stereo not drawn) |
| 620 s | CN1CCC(OC2CCN(S(=O)(=O)c3ccccc3F)CC2)CC1 |
| 748 s | CCCOc1nccnc1NC1CCN(C(=O)c2ccco2)CC1 |
| 927 s | O=S(=O)(CCc1noc(C2COc3ccccc3O2)n1)c1ccccc1 (stereo not drawn) |
| 802 s | Cc1cc(OCC(=O)Nc2ccc(C#N)cc2)nc(N2CCN(c3ccccc3)CC2)n1 |
| 599 s | CCCCN1CCN(C(=O)C2CC(=O)N(c3ccc4c(c3)CCN4C(=O)C3CC3)C2)CC1 (stereo not drawn) |
| 564 s | CCOC(=O)CCC(=O)NCCN1CCN(c2ccccc2)CC1 |
| 621 s | O=C(c1cccc(Cl)c1)N1CCN(c2cc(-c3cccnc3)[nH]n2)CC1 |
| 784 s | CCCNC(=O)CCC1CCN(S(=O)(=O)c2ccccc2)CC1 |
| 587 s | COc1ccc(C(=O)N2CCCn3cc(-c4ccccc4F)nc32)cn1 |
| 674 s | Cc1ccc2c(C(=O)NCc3ccccc3Cl)cc(NC(=O)C(C)C)cc2n1 |
| 599 s | Cc1cc(C)cc(C(=O)N2CCCC(C(=O)NCCN(C)C)C2)c1 (stereo not drawn) |
| 992 s | Cc1ccc(N(C)C(=O)C2CCCN(S(=O)(=O)c3cc(-c4noc(C)n4)cs3)C2)cc1 (stereo not drawn) |
| 1270 s | COc1ccc(N2CCN(S(=O)(=O)c3cc(-c4cc(C(F)(F)F)on4)sc3C)CC2)cc1 |
| 1120 s | Cc1ccc(-c2noc(Cc3nnc(-c4ccc(F)cc4)o3)n2)cc1C |
| 678 s | Cc1noc(C2CN(C(=O)CCC(C)C)CC23CCOCC3)n1 (stereo not drawn) |
| 1270 s | CCc1nc(-c2ccc(-c3noc(COc4ccc(OC)cc4)n3)cc2)cs1 |
| 1010 s | Cc1cccc(-c2noc(C3CCCN3C(=O)Nc3ccc(F)cc3)n2)c1 (stereo not drawn) |
| 612 s | O=C(c1cc(-c2ccccn2)n[nH]1)N1CCN(C(=O)C2CCC2)CC1 |
| 665 s | NC(N)=N/N=C(\c1ccc(Cl)cc1)C1CC1 |
| 980 s | O=C(CCn1nnc2cc(-c3noc(-c4cccc(Br)c4)n3)ccc21)N1CCOCC1 |
| 790 s | Cc1ccc(Nc2c(-c3ccc([N+](=O)[O-])cc3)nc3cc(C)ccn23)cc1 |
| 669 s | COCC(=O)N1CCCn2nc(-c3ccccc3)cc2C1 |
